Results on eight molecules are retold here after patent US10525100B2, “ATF5 peptide variants and uses thereof” (Sapience Therapeutics, Inc., priority 2018, dated 2020).

Ends that are not written are not given here.

For one data set, the system named is HL60 cells. Put plainly: HL60 cell viability assay (Annexin V FITC / PI flow cytometry). Format: cell-based, human. The conditions noted are these: for EC50: 48 h; for cytotoxic activity compared with another peptide: HL60 cell viability, FIGS. 2-5, in words. The method, then:
HL60 PML suspension cells were set at a density of 3.5×10^3 cells/well in 150 μL of RPMI+1.5% fetal bovine serum (FBS) in a 96 well dish. ST-3, reconstituted at a concentration of 10 mg/mL in 20 mM His, pH 7.5, was added to each well at a volume of 50 μL to a final concentration range of 0-80 μM. Cells were incubated with ST-3 for 48 hours at 37° C. Cell viability was quantified by flow cytometry using an Abcam Annexin V FITC apoptosis detection kit. Briefly, cells were washed with PBS and resuspended in 1× assay buffer containing Annexin V FITC and propidium iodide (PI). Annexin V detects apoptotic cells, and PI stains dead cells. After staining, apoptotic cells show green fluorescence, dead cells show red and green fluorescence, and live cells show little or no fluorescence. Cells were selected for analysis based on forward scatter (FSC) vs. side scatter (SSC), and analyzed by BD Accuri C6 Plus flow cytometer to detect Annexin V-FITC binding (Ex=488 nm; Em=530 nm) using FITC signal detector and PI staining by the phycoerythrin emission signal detector. Percentage of Annexin V^low and PI^low were quantified and presented as % Viability.
Lyophilized ST-3 or ST-3 with glycine (ST-4) or alanine (ST-5) substituted for cysteine at amino acid position 21 was freshly reconstituted in histidine buffer to a stock solution of 5 mg/mL and added to cells at a final concentration range of 0-40 μM. Cells were incubated with ATF5 peptide for 48 hours prior to quantification of cell viability.
(§1) ST-13 was further examined in various human cancer cell lines, as was a second retro-inverso variant, ST-14. Suspension cells (HL60, AML14, or SET2) were set at a density of 3.5×10^3 cells/well in 150 μL of RPMI+1.5% fetal bovine serum (FBS) in a tissue culture-treated 96 well dish. ATF5 peptide, reconstituted at a concentration of 10 mg/mL in 20 mM His, pH 7.5, was added to each well at a volume of 50 μL to a final concentration range of 0-80 μM. Cells were incubated with peptide for 48 hours at 37° C. Cell viability was quantified by flow cytometry using an Abcam Annexin V FITC apoptosis detection kit. Briefly, cells were washed with PBS and resuspended in 1× assay buffer containing Annexin V FITC and propidium iodide (PI). Cells were analyzed by BD Accuri C6 Plus flow cytometer to detect Annexin V-FITC binding (Ex=488 nm; Em=530 nm) using FITC signal detector, and to detect PI staining using the phycoerythrin emission signal detector. Percentage of Annexin V^low and PI^low were quantified and presented as % Viability. EC50 values were calculated using GraphPad Prism v.7 XML.

For another data set, the system named is AML14 cells. Type of data set: cell-based, human. The method, then: as §1
The subject of the next data set is SET2 cells. Format: cell-based, human. The method, then: as §1
The subject of another data set is A375 cells. Type of data set: cell-based, human. The method, then:
(§2) Additionally, adherent A375, MCF7, U251, DU145, U87, and A549 cells were set at a density of 3.5×10^3 cells/well in 200 μL of media on day −1. On day 0, media was removed and replenished with 150 μL of fresh media, and cells were treated with ATF5 peptide as described. Following a 48-hour incubation at 37° C., floating cells were collected, adherent cells were washed with Dulbecco's Phosphate Buffered Saline (DPBS), dissociated from the dish with 50 μL 2.5% trypsin at RT, and combined with floating cells. Cell viability was determined as described above for suspension cells or by MTT assay (MCF7 cells). Alternatively, cells were gently removed from the cell culture plate following trypsinization with 2.5% trypsin, and cell viability was quantified by flow cytometry using an Abcam Annexin V FITC apoptosis detection kit, as described above.

For the next data set, the system named is MCF7 cells. Type of data set: cell-based, human. The method, then: as §2
Data set [1] has as its system wide range of tumor cell types. The data set is described as follows: Cytotoxic activity in various human cancer cell lines. Type of data set: cell-based. The conditions noted are these: in words; FIGS. 6A-6E, 7A-7E. The method, then: as §1, with “Briefly, cells were washed with PBS and resuspended in 1× assay buffer containing Annexin V FITC and propidium iodide (PI).” left out, “XML. […] Cell viability was determined as described above for suspension cells or by MTT assay (MCF7 cells). Alternatively, cells were gently removed from the cell culture plate following trypsinization with 2.5% trypsin, and cell viability was quantified by flow cytometry using an Abcam Annexin V FITC apoptosis detection kit, as described above.” for “XML.”

Take “RQIKIWFQNRRMKWKKLEGEAQGLEARNRELKERAESV [ST-5]”: in the data set on HL60 cells, the EC50 was approximately 38 µM and the “cytotoxic activity compared with another peptide” value was “attenuated but not ablated”.

Take “RQIKIWFQNRRMKWKKLEGRCQGLRAELRELEERAEAV [ST-10]”: in the data set with HL60 cells, the response was half-maximal at 2.2 µM (EC50) and the “cytotoxic activity compared with another peptide” value was “comparable to that of ST-9”.

Take “RQIKIWFQNRRMKWKKLEGECQGLEARNRELKERAESV [ST-3, reference compound]”: the EC50 in the data set on AML14 cells was found to be 29.6 µM; with SET2 cells, 98.2 µM; with A375 cells, 21.8 µM; in the data set with MCF7 cells, 52.9 µM.

For “RQIKIWFQNRRMKWKKLEGRAQGLRAELRELEERAEAV [ST-11]”, in the data set with HL60 cells, the response was half-maximal at 4.2 µM (EC50) and the “cytotoxic activity compared with another peptide” value is listed as “improved cytotoxic activity over ST-3”.

As for “RQIKIWFQNRRMKWKKLEGECQGLEARNRELKERAEAV [ST-6]”, in the data set with HL60 cells, the EC50 worked out at 11.2 µM and the “cytotoxic activity compared with another peptide” value is “comparable activity to ST-3”.

On to “RQIKIWFQNRRMKWKKLEGRCQGLRAENRELEERAESV [ST-9]”, for which, in the data set on HL60 cells, a half-maximal effect (EC50) was put at 2 µM and the “cytotoxic activity compared with another peptide” value is recorded as “significantly increased over that of ST-3”.

For `CC[C@@H](C)[C@@H](NC(=O)[C@@H](CCCCN)NC(=O)[C@H](NC(=O)[C@@H](Cc1c[nH]c2ccccc12)NC(=O)[C@@H](Cc1ccccc1)NC(=O)[C@@H](CCC(N)=O)NC(=O)[C@@H](CC(N)=O)NC(=O)[C@@H](CCCNC(=N)N)NC(=O)[C@@H](CCCNC(=N)N)NC(=O)[C@@H](CCSC)NC(=O)[C@@H](CCCCN)NC(=O)[C@@H](Cc1c[nH]c2ccccc12)NC(=O)[C@@H](CCCCN)NC(=O)[C@@H](CCCCN)NC(=O)[C@@H](CC(C)C)NC(=O)[C@@H](CCC(=O)O)NC(=O)CNC(=O)[C@@H](CCCNC(=N)N)NC(=O)[C@@H](C)NC(=O)[C@@H](CCC(N)=O)NC(=O)CNC(=O)[C@@H](CC(C)C)NC(=O)[C@@H](CCCNC(=N)N)NC(=O)[C@@H](C)NC(=O)[C@@H](CCC(=O)O)NC(=O)[C@@H](CC(C)C)NC(=O)[C@@H](CCCNC(=N)N)NC(=O)[C@@H](CCC(=O)O)NC(=O)[C@@H](CC(C)C)NC(=O)[C@@H](CCC(=O)O)NC(=O)[C@@H](CCC(=O)O)NC(=O)[C@@H](CCCNC(=N)N)NC(=O)[C@@H](C)NC(=O)[C@@H](CCC(=O)O)NC(=O)[C@@H](C)NC(=O)[C@H](N)C(C)C)[C@H](C)CC)C(=O)N[C@H](CCC(N)=O)C(=O)N[C@H](CCCNC(=N)N)C(=O)O` [ST-13], the EC50 was determined as 4.8 µM in the data set on HL60 cells and 1.4 µM with A375 cells. The “cytotoxic activity in tumor cell types” value in data set [1] is “significant cytotoxic activity”.

Take “RQIKIWFQNRRMKWKKLEGEGQGLEARNRELKERAESV [ST-4]”: in the data set with HL60 cells, the EC50 was approximately 35 µM and the “cytotoxic activity compared with another peptide” value was “attenuated but not ablated”.
